Experiments:
Swiss Webster mice = experiment: 6-Hz psychomotor seizure assay; type: in vivo, mouse
Experimental: All subsequent experimental cohorts contained male mice. One drop (˜50 ul) of 0.5% tetracaine hydrochloride ophthalmic solution was applied to the corneas of each mouse 10-15 min before stimulation. Corneal electrodes were coated with a thin layer of electrode gel (Parker Signagel). A constant-current current device (ECT Unit 57800, Ugo Basile) was used to deliver current at 3 sec duration, 0.2 ms pulse-width and 6 pulses/s frequency. CC50 (the intensity of current required to elicit seizures in 50% of the experimental group) was measured as a metric for seizure susceptibility. […] Each mouse was seizure-tested only once, and thus at least n>6 mice were used to adequately power each experiment group. To determine CC50s for each experimental group, 24 mA currents were administered to the first mouse per experimental group per cohort, followed by fixed increases or decreases by 2 mA intervals. […] Locomotor behavior was recorded using Ethovision XT software (Noldus) and quantitative measures for falling, tail dorsiflexion (Straub tail), forelimb clonus, eye/vibrissae twitching and behavioral remission were scored manually. […] Latency to exploration (time elapsed from when an experimental mouse is released into the observation cage (after corneal stimulation) to its first lateral movement) was scored using Ethovision and manually with an electronic timer. […]

[1] = test system: gamma-glutamyltranspeptidase (GGT); experiment: GGT activity assay in fecal samples; type: biochemical; details: fecal samples exposed in vitro, 500 uM
Experimental: GGT activity was measured as previously described in van der Stel, Frontiers in Microbiology (6), 567 (2015). For anaerobic cultures, bacteria were seeded at 3×10^5 cfu/ml in CD- and KD-based media. 1 ml bacterial suspension was pelleted and frozen at −80° C. for 1 hr. Separate aliquots of the same suspension were plated in BHI mucin agar media or RCM and incubated at 37° C. in a Coy anaerobic chamber for later data normalization by bacterial cfu. Pellets were then resuspended in 250 ul lysis buffer (50 mM Tris-HCl with 1 ug/ml lysozyme) and incubated on ice for 30 min. For fecal samples, one pellet was weighed and homogenized in 1 ml lysis buffer. Bacterial and fecal suspensions were then sonicated (QSonica 125) and centrifuged at 12000×g for 10 min at 4° C. […] Absorbance at 405 nm denoting production of 3-carboxy-4-nitroaniline was measured every minute for 1 hr at 37° C. using an automated multimode plate reader (Biotek Synergy H1).
To gain insight into whether the KD and interactions between A. muciniphila and Parabacteroides spp. suppressed bacterial gamma-glutamylation in vivo, GGT activity was measured in fecal samples collected from SPF or A. muciniphila and Parabacteroides spp.-enriched mice fed the CD or KD.

P. merdae = experiment: Cross-feeding in vitro assay, P. merdae growth and viability; type: cell-based; details: pre-treatment 500 uM, 2 hours, pilot experiments
Experimental: (§1) Cross-feeding was measured as previously described. A. muciniphila was embedded at 2×10^6 cfu/ml in 5 ml pre-reduced CD or KD-based liquid media supplemented with 1% agar at the bottom of an anaerobic tube, and P. merdae was overlaid above it at 6×10^6 cfu/ml in 5 ml pre-reduced M9 minimal media. Diet-based media were generated by aseptically suspending mouse KD vs. CD diets, described above, to 2 kcal/ml in M9 media. Pilot experiments confirmed no ectopic translocation of embedded A. muciniphila from the agar compartment into the above M9 liquid compartment. For each time point, aliquots were taken from the top and bottom compartments, plated in a dilution series in rich media (RCM for P. merdae and BHI+0.05% mucins for A. muciniphila), and colonies were counted. For GGsTop pre-treatment experiments, P. merdae was incubated with 500 uM GGsTop vs vehicle in RCM media at 37° C. for 2 hours and then washed with sterile media.

Kcna1−/− mice = experiment: Kcna1 seizure recordings (EEG); type: in vivo, mouse; details: CD-fed SPF Kcna1−/− mice; 13.3 mg/kg oral gavage every 12 hours
Experimental: EEG Implantation and Recovery. EEGs were recorded from male and female Kcna1^−/− mice at 6-7 weeks of age. Kcna1^+/+ littermates were used as controls. […] Data presented include both sexes. Mice were anesthetized with isoflurane (5% induction, 2% maintenance) and eye ointment applied to each eye. Fur was removed along the head, and the area was cleaned with three alternative scrubs of chlorohexidine and 70% isopropanol. In a biosafety cabinet, mice were positioned in a stereotaxic apparatus (Harvard Biosciences) and 1 mg/kg lidocaine+1 mg/kg bupivacaine was applied locally along the incision site. […]
During EEG recordings animals were freely moving and maintained on experimental diet. […] Simultaneous video recordings of behavioral seizures were correlated with EEG recordings and scored based on an adapted Racine scale and defined by 5 stages: 1) myoclonic jerk, 2) head stereotypy and facial clonus, 3) bilateral and alternating forelimb/hindlimb clonus, 4) rearing and falling, and 5) generalized tonic-clonic episodes. Data were analyzed by a blinded researcher using Neuroscore CNS Software (DSI). EEG signals were filtered using a 10 Hz high pass filter, and seizure events were detected by blinded manual scoring. […]
For wild type mice: 4-week old SPF Swiss Webster mice were fed CD ad libitum for 14 days. […] Seizures were recorded over 3 days by EEG beginning 2 hours after the final gavage. […]

A. muciniphila = experiment: Cross-feeding in vitro assay, A. muciniphila growth; type: cell-based, Akkermansia muciniphila; details: exposed to P. merdae pre-treated with 500 uM for 2 hours; 24 hours after incubation; vs vehicle-treated P. merdae
Experimental: as §1

| Molecule | Protection against 6-Hz seizures / seizure threshold (Swiss Webster mice; Abx-treated SPF mice gavaged with 10^9 cfu bacteria, fed KD, tested at 14 days) | GGT activity signal of fecal samples [1] | P. merdae viability (P. merdae) | Seizures per day (Kcna1−/− mice) | Seizure threshold (Swiss Webster mice; SPF CD mice gavaged for 3 days, 13.3 mg/kg every 12 hours) | A. muciniphila growth (A. muciniphila) |
| --- | --- | --- | --- | --- | --- | --- |
| Bifidobacterium longum | no effect |  |  |  |  |  |
| COP(=O)(CCC(N)C(=O)O)Oc1cccc(CC(=O)O)c1 (stereo not drawn) [GGsTop, 3-[[(3-amino-3-carboxypropyl)methoxyphosphinyl]oxy]benzeneacetic acid] |  | eliminated the detected signals | no significant effect | significant decrease in seizures per day | increases in seizure thresholds | increased growth |

Reference: patent US11883441B2, “Compositions and methods for inhibiting seizures” (The Regents of the University of California, priority 2016, dated 2024)
